One molecule from patent US8981149B2, “Compounds modulating the hedgehog protein signaling pathway, marked forms thereof, and applications” (Centre National De La Recherche Scientifique, priority 2011, dated 2015) can be followed below.

For the test, the system named is PCGs of rat cerebellum. Kind of test: Proliferation of granule cell precursors (PCGs) of rat cerebellum induced by SAG, 3H-thymidine incorporation. In kind it is cell-based. Conditions: for IC50: proliferation induced by SAG (0.01 μM), 3H-thymidine incorporation, read-out: IC50 ± SEM, PCGs of rat cerebellum (3). The method, then:
The granule cell precursors (GCP) are isolated from cerebellums of rats (IFFA-CREDO, France), 8 days after birth (P8). The cerebellums are taken, cut into small pieces, placed in Krebs-Ringer buffer (120 mM NaCl, 5 mM KCl, 1 mM KH2PO4, 25 mM NaHCO3, 15 mM glucose, 0.04 mM phenol red) and incubated for 15 minutes at room temperature in a dissociation buffer composed of Krebs-Ringer with addition of 250 mg/ml of trypsin (Sigma, France). Enzymatic dissociation is stopped by adding an equal volume of Krebs-Ringer buffer containing 250 mg/ml of a trypsin inhibitor and 80 mg/ml of DNase (Sigma, France). The tissue is centrifuged at 100 g for 10 seconds and the pellet obtained is resuspended and triturated using Pasteur pipettes of decreasing diameter to obtain a suspension of isolated cells. This suspension is centrifuged at 200 g for 5 minutes and the pellet obtained is resuspended in Neurobasal medium supplemented with 1 mM of pyruvate, 2 mM L-glutamine, penicillin/streptomycin and 1% of supplement N2, 60 mg/ml N-acetyl cysteine and […] of bovine serum albumin (BSA, Sigma, France).
The cerebellar GCPs obtained are transferred to 96-well plates treated beforehand with poly-D-lysine at a density of 2.10^5 cells/well. SAG in the presence or absence of the other test compounds is added immediately. 12 hours before the end of culture, tritiated thymidine (^3H-thymidine) is added. The cells are aspirated and recovered on a glass fiber filter (GF/C) using an automated cell collector (Brandel, USA). The amount of radioactivity incorporated by the cells was quantified in the presence of a scintillating agent in a liquid scintillation counter (Wallac, USA).
The cerebellar PCGs proliferate in response to activation of the Shh signalling pathway, a response that can be inhibited by the Smo antagonists (Rohatgi et al., 2009, Proc. Natl. Acad. Sci. USA 106: 3196-201). We therefore analyzed the capacity of compound (7d) for inhibiting the proliferation of the PCGs of rat cerebellum in primary culture by measuring the incorporation of tritiated thymidine, a marker of DNA newly synthesized during the proliferation process.
(In general: Uptake of a labelled nucleoside into DNA is a usual measure of proliferation.)

Like-named read-outs stand apart in the source and are kept apart here.

On to `COc1cc(C(=O)NC(=N)Nc2ccc(C)c(NC(=O)c3ccc(CCc4ccccc4)cc3)c2)cc(OC)c1OC.Cl` [Compound 7d, 3,4,5-trimethoxy-N—(N-(4-methyl-3-(4-phenethylbenzamido)phenyl)carbamimidoyl)benzamide hydrochloride], for which the half-inhibitory concentration (IC50) (Rattus norvegicus) amounted to 0.45 nM and the IC50 (hydrochloride) was 0.4 ± 0.1 nM. Further, the “Type of antagonism on proliferation of PCGs” value (induced by SAG (0.01 μM)) was “complete antagonist”.

By IC50 is commonly meant the midpoint of a concentration-inhibition curve.
